Data from US7960339B2, “Antimicrobial peptides” (Österreichische Akademie der Wissenschaften, priority 2006, dated 2011).
Peptide text beside a SMILES is read from it.

What was measured:
E. coli LPS = test: Mouse model of acute endotoxemia (LPS plus galactosamine); format: in vivo, ICR-CD1 mice; conditions: 150 μg intraperitoneal immediately after 0.3 μg E. coli LPS + 18 mg galactosamine; monitored until 168 hours
Protocol: Mice are remarkably resistant to LPS-mediated septic shock. However, the sensitivity of mice to endotoxin can be potentiated by coinjecting LPS with galactosamine. Groups of 16-18 female ICR-CD1 mice of 20-25 g of weight were intraperitoneally injected with 200 μl of pyrogen-free saline containing a mixture of 0.3 μg of E. coli LPS and 18 mg of galactosamine. Previous experiments allowed to determine that such a combination was lethal for 90% (LD90) of the animals 48 h after the injection. Immediately after this challenge, mice received a second intraperitoneal injection at a different site of the abdomen containing 150 μg of the peptide dissolved in 150 μl of 10% DMF pyrogen-free saline. In all the experiments a group of mice was left untreated whereas another group received 150 μg of polymyxin B. Mortality of the animals was monitored at daily intervals until 168 hours postchallenge.

LPS Re595 = test: Local Shwartzmann reaction in rabbit (lipid A-induced hemorrhagic dermonecrosis); format: in vivo, New Zealand White rabbits; conditions: i.d. injection in shaved dorsal region; open necrosis observed after 72-96 hours; minimum 3 injections in minimum 3 rabbits
Protocol: (§1) The principle of lipid A-induced pro-inflammatory cytokine activity leading to hemorrhagic dermonecrosis (classical Shwartzmann reaction) was tested in rabbit, an animal model very close to humans in terms of sensitivity to LPS activity, and was compared to the inhibition of the lipid A-induced LAL enzymatic cascade activation leading to clot. Thereby, New Zealand White rabbits were injected in the shaved dorsal region with S. minnesota Re595 lipid A alone or with peptide 1:100 (w/w) (5 μg in 0.2 ml saline buffer; route i.d.). […] Polymyxin B (PmB) was used as a control.

MonoMac6 cells = test: Release of TNFα from MonoMac6 cells stimulated by bacteria killed with antibiotics or peptides (ELISA); format: cell-based; conditions: E. coli strain 0:111 incubated over night with agent, then 15 hours on 10^5 MonoMac6 cells; FIG. 5
Protocol: Bacteria can be killed by different antibiotics, targeting different molecules essential for bacterial survival. When Gram-negative bacteria are killed, released LPS can stimulate production of cytokines, such as TNFα, or other inflammatory mediators. Comparison of well-established antimicrobial agents acting through different cellular targets with compounds of this invention were done in the following manner: bacteria (E. coli strain 0:111) were grown in LB medium to the absorbance at 600 nm of 0.4 and diluted 2500 fold in RPMI medium with added glucose. Different concentrations of antibiotics or peptides from this invention were added and incubated over night. 80 μl of cell suspension was added to the 100 μl containing 10^5 MonoMac6 cells and after 15 hours the release of TNFα to the medium was determined using ELISA test.

LPS S. Minnesota Re595 = test: Endpoint LAL activity (Limulus gel-clotting test), inhibition of lipid A-induced LAL enzymatic cascade; format: biochemical; conditions: sensibility 0.125 EU/ml, peptide:LPS 100:1 (w/w), minimum of 6 tests in triplicate
Protocol: as §1

C. neoformans ATCC 32045 = format: cell-based; conditions: OD620, 72 hrs at 26° C., 2×YM broth
Method in brief: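 Fungal inoculum was about 1×10^5 to 5×10^5 CFU/ml in 2×YM broth, added to peptides dispensed at 1 mg/ml to 1 μg/ml in twofold serial dilutions. After 72 hrs at 26° C, relative growth was read as OD620. IC50 values came from sigmoidal curve fitting.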

Compound | protection against endotoxic shock (mortality) (E. coli LPS) | Local Shwartzmann reaction in rabbit peptide: LPS Re595 100:1 (w/w) (LPS Re595) | release of TNFα / stimulation of the monocytes (MonoMac6 cells) | Endpoint LAL activity peptide: LPS Re595 100:1 (w/w) (LPS S. Minnesota Re595) | average IC50 (C. neoformans ATCC 32045; 50% growth inhibition) [µg/mL] | average MIC (C. neoformans ATCC 32045; lowest concentration that resulted in 2% growth) [µg/mL]
polymyxin B [PmB, reference compound] | did not confer significant protection | NEGATIVE | significantly inhibited the release of TNFα | NEGATIVE |  | 
CC[C@H](C)[C@H](NC(=O)[C@H](CCCNC(=N)N)NC(=O)[C@@H](NC(=O)[C@H](CCCNC(=N)N)NC(=O)[C@H](Cc1c[nH]c2ccccc12)NC(=O)[C@H](Cc1ccccc1)NC(=O)[C@@H]1CCCN1)[C@@H](C)CC)C(=O)N[C@@H](CCCNC(=N)N)C(=O)N[C@@H](CCCNC(=N)N)C(N)=O [VS1-22, PFWRIRIRR-NH2] (H-PFWRIRIRR-NH2; N-terminus assumed) |  | NEGATIVE | significantly inhibited the release of TNFα | NEGATIVE | 2 | 8
